Laboratory results as given in ChEMBL document CHEMBL1201862, “PubChem BioAssay data set” (2004).
Activity calls are given as the source filed them.

Assays:
Vero [1] = assay: cells; type: functional, cell-based; conditions: Chlorocebus sabaeus
Escherichia coli [2] = assay: microbe, parasite or virus in culture
[3] = A cytotoxicity screen of small molecule inhibitors of the PhoP region in Salmonella typhi identified in the primary screen. [Related pubchem assays: 1850, 1864, 1985 ]; type: functional
Escherichia coli [4] = assay: microbe, parasite or virus in culture; remark: listed apart in the source
[5] = target: T1, Carboxy-terminal domain RNA polymerase II polypeptide A small phosphatase 1 (Homo sapiens, UniProt Q9GZU7); assay: inhibitors of CTDSP1, concentration-response testing, biochemical assay, absorbance-based, actives from ultra-high-throughput screening (AID 540297); type: functional
T1 sequence (Q9GZU7 whole entry): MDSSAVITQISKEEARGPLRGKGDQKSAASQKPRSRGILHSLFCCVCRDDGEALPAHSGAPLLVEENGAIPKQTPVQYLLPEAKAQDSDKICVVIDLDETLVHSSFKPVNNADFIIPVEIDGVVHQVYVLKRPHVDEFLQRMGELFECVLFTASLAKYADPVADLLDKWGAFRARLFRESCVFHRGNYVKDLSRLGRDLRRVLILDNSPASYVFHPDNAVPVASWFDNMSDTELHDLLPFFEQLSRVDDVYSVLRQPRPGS

[6] = target: T2, Voltage-gated N-type calcium channel alpha-1B subunit/Amyloid beta A4 precursor protein-binding family A member 1 (Homo sapiens, UniProt Q00975+Q02410); type: protein assay
T2 sequence (Q00975 whole entry): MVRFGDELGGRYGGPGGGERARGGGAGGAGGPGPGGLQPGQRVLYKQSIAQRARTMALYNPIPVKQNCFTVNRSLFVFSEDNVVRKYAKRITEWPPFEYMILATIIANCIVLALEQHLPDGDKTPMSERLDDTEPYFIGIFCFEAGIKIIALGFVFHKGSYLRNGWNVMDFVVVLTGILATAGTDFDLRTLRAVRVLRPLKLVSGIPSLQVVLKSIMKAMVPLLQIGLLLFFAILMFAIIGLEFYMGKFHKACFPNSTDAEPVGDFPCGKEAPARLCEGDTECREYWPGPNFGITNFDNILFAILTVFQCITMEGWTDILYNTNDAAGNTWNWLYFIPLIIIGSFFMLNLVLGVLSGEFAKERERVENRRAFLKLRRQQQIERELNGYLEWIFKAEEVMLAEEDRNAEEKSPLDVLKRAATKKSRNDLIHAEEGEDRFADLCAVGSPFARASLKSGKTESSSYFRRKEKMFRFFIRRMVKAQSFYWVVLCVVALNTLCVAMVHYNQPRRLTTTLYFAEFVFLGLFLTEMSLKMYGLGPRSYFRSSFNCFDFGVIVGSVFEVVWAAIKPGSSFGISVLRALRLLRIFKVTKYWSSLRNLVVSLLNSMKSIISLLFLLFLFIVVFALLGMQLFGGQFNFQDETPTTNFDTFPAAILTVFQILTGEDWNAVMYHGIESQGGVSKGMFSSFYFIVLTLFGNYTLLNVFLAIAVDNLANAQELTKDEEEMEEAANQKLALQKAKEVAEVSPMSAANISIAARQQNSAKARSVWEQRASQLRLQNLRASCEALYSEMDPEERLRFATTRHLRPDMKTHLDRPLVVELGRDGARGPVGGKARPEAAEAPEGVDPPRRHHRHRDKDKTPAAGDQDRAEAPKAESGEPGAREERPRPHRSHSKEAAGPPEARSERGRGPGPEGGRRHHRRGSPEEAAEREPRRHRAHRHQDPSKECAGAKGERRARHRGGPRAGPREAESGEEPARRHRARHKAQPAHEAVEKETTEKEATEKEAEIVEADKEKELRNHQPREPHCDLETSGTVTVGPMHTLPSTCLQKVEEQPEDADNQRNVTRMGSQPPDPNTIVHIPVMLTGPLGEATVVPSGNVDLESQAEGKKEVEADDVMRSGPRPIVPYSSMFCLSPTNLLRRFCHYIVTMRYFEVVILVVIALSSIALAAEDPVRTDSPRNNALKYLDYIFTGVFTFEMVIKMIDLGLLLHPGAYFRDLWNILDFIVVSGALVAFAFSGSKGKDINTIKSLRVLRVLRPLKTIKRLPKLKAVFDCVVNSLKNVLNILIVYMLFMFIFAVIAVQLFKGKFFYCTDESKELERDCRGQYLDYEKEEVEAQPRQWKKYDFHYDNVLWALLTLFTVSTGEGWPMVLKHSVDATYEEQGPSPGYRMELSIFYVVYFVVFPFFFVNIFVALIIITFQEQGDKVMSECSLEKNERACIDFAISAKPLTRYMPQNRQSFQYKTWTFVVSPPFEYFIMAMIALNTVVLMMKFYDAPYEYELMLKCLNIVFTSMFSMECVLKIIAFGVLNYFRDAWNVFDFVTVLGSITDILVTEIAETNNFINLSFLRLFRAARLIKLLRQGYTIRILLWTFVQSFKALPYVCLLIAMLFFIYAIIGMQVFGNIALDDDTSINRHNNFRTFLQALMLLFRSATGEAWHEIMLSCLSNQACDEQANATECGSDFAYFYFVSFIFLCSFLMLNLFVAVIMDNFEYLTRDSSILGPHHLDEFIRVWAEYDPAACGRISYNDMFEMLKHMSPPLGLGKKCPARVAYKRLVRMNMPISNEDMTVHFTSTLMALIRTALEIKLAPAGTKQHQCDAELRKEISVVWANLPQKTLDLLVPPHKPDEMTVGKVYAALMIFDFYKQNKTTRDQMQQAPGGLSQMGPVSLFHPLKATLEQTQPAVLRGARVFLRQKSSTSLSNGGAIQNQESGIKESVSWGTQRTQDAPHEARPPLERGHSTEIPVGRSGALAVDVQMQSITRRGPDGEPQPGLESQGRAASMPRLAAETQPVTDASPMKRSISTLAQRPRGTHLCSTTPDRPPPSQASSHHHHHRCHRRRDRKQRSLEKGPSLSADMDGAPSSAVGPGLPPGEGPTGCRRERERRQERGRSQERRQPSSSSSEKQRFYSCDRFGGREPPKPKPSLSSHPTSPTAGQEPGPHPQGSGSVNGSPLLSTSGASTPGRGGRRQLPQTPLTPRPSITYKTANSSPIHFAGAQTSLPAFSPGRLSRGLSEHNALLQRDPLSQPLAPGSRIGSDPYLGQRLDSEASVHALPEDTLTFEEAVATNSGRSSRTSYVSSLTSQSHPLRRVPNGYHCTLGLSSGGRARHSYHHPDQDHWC
T2 sequence (Q02410 whole entry): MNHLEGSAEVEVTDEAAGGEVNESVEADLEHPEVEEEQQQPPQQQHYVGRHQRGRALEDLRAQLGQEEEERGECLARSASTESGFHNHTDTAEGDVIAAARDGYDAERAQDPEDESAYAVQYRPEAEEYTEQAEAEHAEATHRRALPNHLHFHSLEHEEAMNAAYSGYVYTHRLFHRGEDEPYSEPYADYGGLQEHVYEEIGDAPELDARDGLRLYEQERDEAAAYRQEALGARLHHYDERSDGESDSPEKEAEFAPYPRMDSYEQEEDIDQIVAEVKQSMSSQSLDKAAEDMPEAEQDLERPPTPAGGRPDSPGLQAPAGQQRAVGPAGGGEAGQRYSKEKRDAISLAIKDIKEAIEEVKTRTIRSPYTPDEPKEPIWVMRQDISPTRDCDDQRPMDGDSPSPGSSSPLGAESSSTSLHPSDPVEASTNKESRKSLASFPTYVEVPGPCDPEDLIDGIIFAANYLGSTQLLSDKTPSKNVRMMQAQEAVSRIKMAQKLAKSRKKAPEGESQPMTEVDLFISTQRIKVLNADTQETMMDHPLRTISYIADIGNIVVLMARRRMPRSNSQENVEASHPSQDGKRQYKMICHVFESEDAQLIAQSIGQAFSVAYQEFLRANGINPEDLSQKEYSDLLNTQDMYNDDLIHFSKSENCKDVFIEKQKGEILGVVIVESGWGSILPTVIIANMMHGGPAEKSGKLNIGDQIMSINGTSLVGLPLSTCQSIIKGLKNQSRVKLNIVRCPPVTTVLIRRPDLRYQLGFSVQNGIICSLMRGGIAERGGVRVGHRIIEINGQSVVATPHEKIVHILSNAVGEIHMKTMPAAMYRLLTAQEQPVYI

[7] = target: Induced myeloid leukemia cell differentiation protein Mcl-1 (Homo sapiens, UniProt Q07820); type: functional
Sequence of Induced myeloid leukemia cell differentiation protein Mcl-1 (Q07820 whole entry): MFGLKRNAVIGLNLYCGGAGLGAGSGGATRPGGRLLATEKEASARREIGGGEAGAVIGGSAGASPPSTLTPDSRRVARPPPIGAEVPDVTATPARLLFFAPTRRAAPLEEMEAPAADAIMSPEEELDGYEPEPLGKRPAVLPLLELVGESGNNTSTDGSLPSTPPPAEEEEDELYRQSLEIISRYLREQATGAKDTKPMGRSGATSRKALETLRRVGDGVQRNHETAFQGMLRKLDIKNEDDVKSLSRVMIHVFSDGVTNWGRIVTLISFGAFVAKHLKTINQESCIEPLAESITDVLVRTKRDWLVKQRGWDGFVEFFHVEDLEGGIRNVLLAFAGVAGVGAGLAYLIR

[8] = target: T2, Voltage-gated N-type calcium channel alpha-1B subunit/Amyloid beta A4 precursor protein-binding family A member 1; type: protein assay; remark: listed apart in the source
Large T antigen = Large T antigen (Simian virus 40, UniProt P03070); type: functional, Betapolyomavirus macacae;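 note: Confirmatory-stage PubChem screen for compounds that inhibit SV40 T antigen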
Sequence of Large T antigen (P03070 whole entry): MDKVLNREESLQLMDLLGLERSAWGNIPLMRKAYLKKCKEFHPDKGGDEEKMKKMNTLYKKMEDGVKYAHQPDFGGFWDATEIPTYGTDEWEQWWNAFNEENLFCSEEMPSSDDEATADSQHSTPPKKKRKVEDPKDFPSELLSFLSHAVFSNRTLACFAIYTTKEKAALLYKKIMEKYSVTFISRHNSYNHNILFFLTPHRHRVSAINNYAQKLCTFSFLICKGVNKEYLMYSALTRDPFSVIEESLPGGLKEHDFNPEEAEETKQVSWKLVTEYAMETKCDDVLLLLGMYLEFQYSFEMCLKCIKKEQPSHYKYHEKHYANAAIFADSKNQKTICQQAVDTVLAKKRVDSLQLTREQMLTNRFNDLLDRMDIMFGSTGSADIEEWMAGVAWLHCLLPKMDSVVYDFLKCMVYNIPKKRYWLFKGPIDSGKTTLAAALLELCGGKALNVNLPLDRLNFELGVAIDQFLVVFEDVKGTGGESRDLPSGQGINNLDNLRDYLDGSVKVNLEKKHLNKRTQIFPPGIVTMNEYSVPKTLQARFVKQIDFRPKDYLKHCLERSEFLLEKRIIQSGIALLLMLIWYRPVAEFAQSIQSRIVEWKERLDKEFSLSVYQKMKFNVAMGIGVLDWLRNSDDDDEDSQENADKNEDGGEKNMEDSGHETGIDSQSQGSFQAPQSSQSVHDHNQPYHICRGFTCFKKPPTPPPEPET

[9] = growth induction of Burl-1 ts yeast mutant, dose response, counter-screen for SUMOylation pathway inhibitor project, whole organism, S. cerevisiae, luminescence (AID 463199); type: functional
[10] = target: T3, Tyrosine-protein phosphatase non-receptor type 7 (Homo sapiens, UniProt P35236); assay: HePTP (PTPN7) phosphatase inhibitor potency, SAR follow-up, biochemical, set 2 (AID 449736); type: functional
T3 sequence (P35236 whole entry): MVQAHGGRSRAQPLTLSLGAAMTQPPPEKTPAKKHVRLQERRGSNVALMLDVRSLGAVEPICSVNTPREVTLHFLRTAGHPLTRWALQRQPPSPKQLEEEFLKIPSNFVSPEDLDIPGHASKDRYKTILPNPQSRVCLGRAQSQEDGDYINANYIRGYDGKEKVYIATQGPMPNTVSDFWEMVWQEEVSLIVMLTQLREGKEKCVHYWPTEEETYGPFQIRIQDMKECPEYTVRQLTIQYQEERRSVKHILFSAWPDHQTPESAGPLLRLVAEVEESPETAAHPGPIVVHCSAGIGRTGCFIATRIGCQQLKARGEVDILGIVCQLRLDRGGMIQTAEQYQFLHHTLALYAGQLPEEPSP

HEK293 [11] = assay: cells; type: functional, cell-based; conditions: Homo sapiens
HEK293 [12] = assay: cells; type: functional, cell-based; conditions: Homo sapiens; remark: listed apart in the source
HEK293 [13] = assay: NOD2 signaling inhibitors in MDP-stimulated cells, cell-based, uHTS, luminescence (AID 2001); type: functional; conditions: Homo sapiens
HEK293 [14] = assay: NOD1 signaling inhibitors, primary screen, cell-based, luminescence, uHTS (AID 1578); type: functional; conditions: Homo sapiens
HEK293 [15] = assay: cells; type: functional, cell-based; conditions: Homo sapiens; remark: listed apart in the source
[16] = target: Nucleotide-binding oligomerization domain-containing protein 2 (Homo sapiens, UniProt Q9HC29); assay: NOD2 signaling inhibitors, cell-based, luminescence, uHTS, HEK293 (AID 1566); type: functional
[17] = cytotoxicity toward NIH3T3 fibroblasts, dose response, counter-screen, cell-based, ATP luminescence, mouse fibroblasts (AID 2010); type: functional;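 note: cells exposed to compound for about 90 hours before reading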
[18] = inhibitors of intracellular T. cruzi replication, confirmation, NIH3T3 host cells, beta-gal luminescence (AID 2044); type: functional, cell-based;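 note: intracellular parasites grown in NIH/3T3 mouse fibroblasts as host cells; luminescent beta-galactosidase reporter signal from transgenic T. cruzi replicating inside host cells; inhibitors lower the luminescence signal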
[19] = target: Glucose-6-phosphate 1-dehydrogenase (Homo sapiens, UniProt P11413); assay: human G6PD enzyme inhibitors, dose response, selectivity assay for P. falciparum G6PD inhibitor project, biochemical, fluorescence (AID 504792); type: functional
INS1 = assay: beta cell apoptosis inhibitors, cytokine rescue, dose response, luminescence, retest (AID 449756); type: functional, cell-based; conditions: Rattus norvegicus;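 note: cell death triggered by IL-1 beta plus TNF-alpha plus IFN-gamma mixture; protective hits raise ATP signal compared with cytokine alone wells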
BJ [20] = assay: cells; type: functional, cell-based; conditions: Homo sapiens
BJ [21] = assay: cytotoxicity toward BJ-TERT-LT-ST fibroblasts, dose response, cell-based, RAS-independent, luminescence (AID 1935); type: functional; conditions: Homo sapiens;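 note: BJ fibroblasts immortalized with TERT plus LT and ST oncogenes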
[22] = C. albicans growth with fluconazole, confirmation, fluorescence, retest (AID 2467); type: functional, cell-based
Nonstructural protein 1 = Nonstructural protein 1 (Influenza A virus, UniProt Q194T2); type: functional, Influenza A virus (A/California/07/2009(H1N1))
[23] = cytotoxicity toward DRD oncogenic fibroblasts, dose response, cell-based, non-viral oncogenic, luminescence (AID 1934); type: functional; conditions: Homo sapiens
Vero [24] = assay: cells; type: functional; conditions: Chlorocebus sabaeus
[25] = NIH-3T3 fibroblast cytotoxicity, dose response, cytotoxicity control, cell-based, fluorescence, Alamar Blue, secondary assay (AID 2327); type: functional;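 note: NIH-3T3 mouse fibroblasts cultured with fluconazole at 8 µg/mL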
BJ [26] = assay: cytotoxicity toward BJ-TERT fibroblasts, dose response, cell-based, RAS-independent, luminescence (AID 1933); type: functional; conditions: Homo sapiens
Hexokinase = Hexokinase (Trypanosoma brucei, UniProt Q38C41); assay: Confirmation assay for inhibitors of Trypanosoma brucei hexokinase 1-Analogue-first series. [Related pubchem assays (depositor defined):AID1430, AID1632, AID2516, AID2560, AID2579, AID2600, AID449725, AID492951]; type: functional
Sequence of Hexokinase (Q38C41 whole entry): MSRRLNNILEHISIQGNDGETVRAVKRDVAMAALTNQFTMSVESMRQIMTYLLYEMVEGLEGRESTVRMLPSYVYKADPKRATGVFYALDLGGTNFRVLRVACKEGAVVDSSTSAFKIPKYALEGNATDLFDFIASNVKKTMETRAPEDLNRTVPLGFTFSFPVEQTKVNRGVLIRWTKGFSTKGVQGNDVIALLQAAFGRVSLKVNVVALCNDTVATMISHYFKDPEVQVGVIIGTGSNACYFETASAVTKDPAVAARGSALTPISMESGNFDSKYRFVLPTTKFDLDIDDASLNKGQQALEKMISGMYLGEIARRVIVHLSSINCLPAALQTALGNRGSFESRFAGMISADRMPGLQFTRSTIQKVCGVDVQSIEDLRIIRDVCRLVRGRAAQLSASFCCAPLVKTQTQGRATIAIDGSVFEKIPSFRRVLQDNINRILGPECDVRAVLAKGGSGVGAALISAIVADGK

[27] = target: FAD-linked sulfhydryl oxidase ALR (Homo sapiens, UniProt P55789); assay: inhibitors of human ALR sulfhydryl oxidase, dose response, biochemical, H2O2 detection, luminescence, cherry-pick (AID 493248)
SUMO-activating enzyme = SUMO-activating enzyme (Homo sapiens, UniProt Q9UBT2); assay: SUMOylation inhibitor hit validation, confirmation, SUMOylation inhibitor project, biochemical, AlphaScreen (AID 2018); type: functional
Coagulation factor XII = target: T4, Coagulation factor XII (Homo sapiens, UniProt P00748); assay: Factor XIIa Dose Response Confirmation from Single Well HTS. [Related pubchem assays (depositor defined):AID701]; type: functional
T4 sequence (P00748 whole entry): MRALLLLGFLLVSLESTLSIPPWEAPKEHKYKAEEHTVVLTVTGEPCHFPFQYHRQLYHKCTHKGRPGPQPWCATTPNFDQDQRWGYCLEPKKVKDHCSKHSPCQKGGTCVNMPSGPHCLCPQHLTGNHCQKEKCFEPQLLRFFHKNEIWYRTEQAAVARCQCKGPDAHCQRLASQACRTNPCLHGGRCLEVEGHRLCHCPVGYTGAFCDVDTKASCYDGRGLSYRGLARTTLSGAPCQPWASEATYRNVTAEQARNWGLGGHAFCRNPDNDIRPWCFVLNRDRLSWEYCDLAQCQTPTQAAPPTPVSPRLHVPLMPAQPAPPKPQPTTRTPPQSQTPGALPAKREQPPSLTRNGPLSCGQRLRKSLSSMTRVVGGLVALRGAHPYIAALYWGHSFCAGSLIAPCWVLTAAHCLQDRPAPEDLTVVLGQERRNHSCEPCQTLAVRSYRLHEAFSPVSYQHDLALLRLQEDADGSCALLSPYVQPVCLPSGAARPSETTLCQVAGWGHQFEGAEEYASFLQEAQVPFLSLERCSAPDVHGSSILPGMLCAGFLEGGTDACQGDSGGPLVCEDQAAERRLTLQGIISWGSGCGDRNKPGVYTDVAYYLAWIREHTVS

[28] = target: G-protein coupled receptor 55 (Homo sapiens, UniProt Q9Y2T6); assay: GPR55 agonists via beta-arrestin recruitment, primary screen, imaging, U2OS cells, beta-arrestin-GFP redistribution (AID 1961); type: functional
Sequence of G-protein coupled receptor 55 (Q9Y2T6 whole entry): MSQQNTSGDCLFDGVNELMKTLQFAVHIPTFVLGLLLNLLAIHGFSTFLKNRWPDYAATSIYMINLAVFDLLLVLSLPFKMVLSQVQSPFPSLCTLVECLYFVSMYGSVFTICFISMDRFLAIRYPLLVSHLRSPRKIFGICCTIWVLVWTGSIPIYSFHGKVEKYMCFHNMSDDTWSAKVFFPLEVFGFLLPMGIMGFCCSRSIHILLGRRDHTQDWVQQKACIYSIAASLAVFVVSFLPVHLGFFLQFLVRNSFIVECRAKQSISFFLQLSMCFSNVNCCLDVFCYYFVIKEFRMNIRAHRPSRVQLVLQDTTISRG

[29] = target: T5, Orexin/Hypocretin receptor type 1 (Homo sapiens, UniProt O43613); assay: Homogeneous Time Resolved Fluorescence (HTRF)-based cell-based high throughput dose response assay for antagonists of the orexin 1 receptor (OX1R; HCRTR1). [Related pubchem assays (depositor defined):AID434989, AID435008, AID463079, AID485270, AID492963, AID492964, AID492965, AID493232, AID504717, AID504718]; type: functional
T5 sequence (O43613 whole entry): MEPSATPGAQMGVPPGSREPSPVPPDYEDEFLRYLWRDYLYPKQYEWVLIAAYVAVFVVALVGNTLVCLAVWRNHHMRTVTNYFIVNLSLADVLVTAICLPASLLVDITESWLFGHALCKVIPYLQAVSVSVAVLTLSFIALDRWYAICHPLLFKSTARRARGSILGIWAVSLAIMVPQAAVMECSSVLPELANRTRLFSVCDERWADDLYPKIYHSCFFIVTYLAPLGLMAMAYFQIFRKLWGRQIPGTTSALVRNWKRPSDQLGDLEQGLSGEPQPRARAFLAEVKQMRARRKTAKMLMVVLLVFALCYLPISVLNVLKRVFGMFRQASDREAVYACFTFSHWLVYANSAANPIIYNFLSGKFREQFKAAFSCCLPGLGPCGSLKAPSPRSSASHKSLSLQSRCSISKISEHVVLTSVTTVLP

[30] = target: T5, Orexin/Hypocretin receptor type 1; assay: Fluorescence-based cell-based high throughput dose response assay for antagonists of the orexin 1 receptor (OX1R; HCRTR1). [Related pubchem assays (depositor defined):AID434989, AID435008, AID463079, AID485270, AID492963, AID492964, AID492965, AID493232, AID504717, AID504718]; type: functional
CHO-K1 = assay: Counterscreen for antagonists of the orexin 1 receptor (OX1R; HCRTR1): Homogeneous time resolved fluorescence (HTRF)-based cell-based dose response assay to identify antagonists of the parental CHO-K1 cell line. [Related pubchem assays (depositor defined):AID434989, AID435008, AID463079, AID485270, AID492963, AID492964, AID492965, AID493232, AID504699, AID504701]; type: functional; conditions: Cricetulus griseus;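 note: potency for inhibition of ATP-stimulated IP1 production as antagonists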
[31] = Counterscreen for antagonists of the orexin 1 receptor (OX1R; HCRTR1): Fluorescence-based cell-based high throughput dose response assay to identify antagonists of the parental CHO cell line. [Related pubchem assays (depositor defined):AID434989, AID435008, AID463079, AID485270, AID492963, AID492964, AID492965, AID493232, AID504699, AID504701]; type: functional

Cc1ccc2[nH]c(CN3CCC(CO)(CC4CCCCO4)CC3)c(C)c2c1 (centres undefined)
IC50 (Vero [1]): > 25 µM (active)

O=C1OCCN1/N=C/c1ccc([N+](=O)[O-])o1 [FURAZOLIDONE]
AC50 (Escherichia coli [2]): 24.4 µM (active) | EC50 [3]: > 50 µM (active) | AC50 (Escherichia coli [4]): 17.8 µM (active)

Cc1c(O)cc2c(c1O)C(=O)CC(c1ccc(O)cc1)O2 (centres undefined)
IC50 [5]: 4.74 µM (active) | IC50 [6]: 13.1 µM (active) | IC50 [7]: 3.94 µM (active) | IC50 [8]: > 50 µM (inactive)

CC(C)CC1=NN2C(=N)/C(=C\c3coc4ccccc4c3=O)C(=O)N=C2S1
IC50 (Large T antigen): 18.3 µM (active)

Cc1ccccc1-c1nnc(CN2CCC(C)CC2)o1
AC50 [9]: 46.9 µM (active)

CCNS(=O)(=O)c1ccc(NC(=S)NC2CCCCC2)cc1
IC50 [10]: > 100 µM (inactive)

Cc1nc(N2CCN(C(=O)COc3ccccc3)CC2)c2c(C)c(C)sc2n1
IC50 (HEK293 [11]): 5.32 µM (active) | IC50 (HEK293 [12]): 11.9 µM (active) | IC50 (HEK293 [13]): 5.95 µM (active) | EC50 (HEK293 [14]): 5.68 µM (active) | IC50 (HEK293 [15]): > 20 µM (inactive) | EC50 [16]: 7.34 µM (active)

O=[N+]([O-])c1ccc(Sc2cccc3cccnc23)c2cccnc12
EC50 [17]: > 30 µM (not active) | EC50 [18]: 0.666 µM (active) | IC50 [19]: > 80 µM (inactive)

C/C(=N\NC(=O)c1cc(-c2cccs2)nc2ccccc12)c1ccccn1
AC50 (INS1): 0.366 µM (active) | EC50 (BJ [20]): 2.12 µM (active) | EC50 (BJ [21]): 1.14 µM (active) | EC50 [22]: 1.19 µM (active) | IC50 (Nonstructural protein 1): 4.52 µM (active) | EC50 [23]: 1.41 µM (active) | IC50 (Vero [1]): > 25 µM (active) | CC50 (Vero [24]): 1.62 µM (active) | EC50 [25]: 2.71 µM (inconclusive) | EC50 (BJ [26]): 1.3 µM (active)

COc1ccc(NC(=O)Cn2sc3ccccc3c2=O)cc1
IC50 (Hexokinase): 5.63 µM (active)

COc1ccc(OC)c(-c2cc(C(=O)Nc3c(C)nn(Cc4ccccc4Cl)c3C)no2)c1
AC50 [9]: 47.9 µM (active)

O=C(Cn1sc2ccccc2c1=O)Nc1cccc(F)c1
IC50 (Hexokinase): 4.78 µM (active)

COc1cc(/C=N/NC(=O)c2cccs2)ccc1O
AC50 [27]: 1.65 µM (active) | IC50 (Large T antigen): 5.62 µM (active)

Cc1ccc2oc(-c3ccc(C)c(NC(=O)Cc4cccs4)c3)nc2c1
IC50 (SUMO-activating enzyme): > 100 µM (inactive)

FC(F)(F)c1cnc(Oc2ccc(-c3nnco3)cc2)c(Cl)c1
IC50 (Coagulation factor XII): > 50 µM (inactive)

CCN(c1ccccc1)S(=O)(=O)c1ccc(C(=O)N(CCN(C)C)c2nc3c(F)cc(F)cc3s2)cc1
EC50 [28]: > 32 µM (inactive)

O=C(/C=C/c1cccc(Br)c1)c1ccc2c(c1)OCO2
EC50 [28]: 4.03 µM (active)

CCc1nc2ccccc2c(C(=O)OC2CCOC2=O)c1C (centres undefined)
AC50 (Escherichia coli [4]): 42.9 µM (active)

Cn1c2ccc(F)cc2c2nc3ccccc3nc21
IC50 [29]: 1.17 µM (active) | IC50 [30]: 6.95 µM (active) | IC50 (CHO-K1): > 66.2 µM (inactive) | IC50 [31]: > 49.7 µM (inactive)
